Measured values as given in US11007206B2, “Cyclic boronic acid ester derivatives and therapeutic uses thereof” (Melinta Subsidiary Corp., priority 2012, dated 2021).
Values joined by “and” are separate entries in the source; they are usually repeats but may differ in a detail not shown here. Identical values can stand only once.

Assays:
[1] = Plasma pharmacokinetics of Compound I after single intraperitoneal dose in Swiss-Webster mice (Example 1); type: in vivo; conditions: mouse plasma, individual animals
Procedure: Example 1 provides a summary of three pharmacokinetic studies Compound I conducted in Swiss-webster mice. The pharmacokinetics of 5 mg/kg, 15 mg/kg and 50 mg/kg of Compound I via the intraperitoneal route were discussed.
Compound I was prepared using the method described in the U.S. Publication 2012/0040932 A1. 100 mg of Compound I was dissolved in 30% 1N NaOH to ˜pH 5.0 as a stock solution. Compound I was further diluted in 0.9% saline to achieve target concentrations.
The specifications for animals used on this study were as follows: • Species: Mouse • Strain: CFW (Swiss) • Gender: Female • Source: Harlan Laboratories (Livermore, Calif.) • Number of Animals: 33 for each dose • Body Weight Range: 18-22 g at the start of the study
After acclimation, mice were administered a single intraperitoneal dose of Compound I at 5, 15, and 50 mg/kg. Groups of three mice were sacrificed at 0.08, 0.16, 0.25, 0.33, 0.5, 0.75, 1.0, 2.0, 3.0, and 4.0 h after dosing. Blood samples (one sample per animal) were collected by cardiac puncture in a heparin containing tube. Blood samples were centrifuged within 5 min of collection at 12000 g for 5 min to obtain plasma. The plasma samples were stored on −80° C. until analyzed.
Compound I standard curves were prepared in plasma from 0.1 to 100 μg/mL. 50 μl aliquots of sample were placed in 1.5 mL microcentrifuge tubes. 20 μl of Compound II (10 μg/mL) was added as internal standard to each sample or standard. 20 μl of 30% trichloroacetic acid was then added to each sample or standard. The samples were mixed using a vortex mixer centrifuged for 10 min at 15,000 RPM using a tabletop centrifuge. The supernatant (approx. […]) was removed and added to 100 μl of water in a 96-well plate. The samples were mixed again using a vortex mixer. 10 μl of each sample was injected onto an HPLC-MS for quantification.
The HPLC-MS conditions for plasma analysis are as follows: • Column: Phenomenex Fusion-RP or equivalent reversed-phase column, 5 um, 50×2 mm. • Flow rate: 0.6 mL/min. • Mobile phase A: 0.1% formic acid in water. • Mobile phase B: 0.1% formic acid in acetonitrile. • Gradient: 5-60% B in 1.5 min. • Mass spectrometer: Negative ion mode with electrospray ionization. • MS/MS: Compound I-Q1-m/e=296, Q3-m/e=234. • Compound II-Q1-m/e=331, Q3-m/e=201.
Plasma concentrations were fit using a one compartment IV infusion model (WinNonlinVersion 5.3, Pharsight Corp, and Mountain View, Calif.).

[2] = Single-dose pharmacokinetics of Compound I across all preclinical species, summary statements incl. coadministration of Biapenem (Example 5); type: in vivo
Procedure: Example 5 provides the single-dose pharmacokinetic studies of Compound I inpreclinical species, including intraperitoneal administration to Swiss-Webster mice and intravaneous administration to Sprague-Dawley rats, Beagle dogs, and Cynomologus monkeys.
Intravaneous doses of Compound I were administered as 30-minute infusions. The pharmacokinetics of Compound I were also studied with coadministration of the carbapenem, Biapenem. Compound I concentrations were determined using an LC-MS detection method.

[3] = test system: KPC-producing strains; assay: Time-kill assays of Biapenem with Compound I (Example 4); type: cell-based, Enterobacteriaceae; conditions: KPC-producing strains (Biapenem MICs of 16-32 ug/ml)
Procedure: The evaluation of Compound I in combination with the carbapenem antibiotic Biapenem against multi-drug resistant strains of Enterobacteriaceae, including those producing serine carbapenemases were also conducted. Antibiotic potentiation activity of Compound I was studied in checkerboard MIC experiments and time-kill assays. The MICs of Biapenem were determined alone or in combination with Compound I added at fixed concentrations between 0.5 and 16 ug/ml) against characterized and engineered isolates producing various beta-lactamases, as well as in geographically diverse panels of multi-drug resistant strains of Enterobacteriaceae (including strains that express the most relevant beta-lactamases).

O=C(O)C[C@@H]1CC[C@H](NC(=O)Cc2cccs2)B(O)O1 [Compound I]
Calc. Conc. (plasma concentration) ([1]; 5 mg/kg intraperitoneal, samples m.p. 5.x = 5th time point (0.5 h), 5 mg/kg): 1.87 µg/mL and 1.31 µg/mL | Calc. Conc. (plasma concentration) ([1]; 5 mg/kg intraperitoneal, samples m.p. 6.x = 6th time point (0.75 h), 5 mg/kg): 0.110 µg/mL and 0.872 µg/mL and 0.461 µg/mL | Calc. Conc. (plasma concentration) ([1]; 5 mg/kg intraperitoneal, samples m.p. 7.x = 7th time point (1.0 h), 5 mg/kg): 0.551 µg/mL and 0.213 µg/mL and 0.457 µg/mL | Calc. Conc. (plasma concentration) ([1]; 5 mg/kg intraperitoneal, samples m.p. 8.x = 8th time point (2.0 h), 5 mg/kg): 0.0898 µg/mL and 0.0404 µg/mL and 0.0440 µg/mL | Calc. Conc. (plasma concentration) ([1]; 5 mg/kg intraperitoneal, samples m.p. 9.x = 9th time point (3.0 h), 5 mg/kg): 0.0103 µg/mL and 0.0354 µg/mL and 0.00806 µg/mL | Calc. Conc. (plasma concentration) ([1]; 5 mg/kg intraperitoneal, samples m.p. 10.x = 10th time point (4.0 h), 5 mg/kg): 0.00577 µg/mL and 0.00418 µg/mL | Calc. Conc. (plasma concentration) ([1]; 15 mg/kg intraperitoneal, samples m.p. 1.x = 1st time point (0.08 h), 15 mg/kg): 9.67 µg/mL | Calc. Conc. (plasma concentration) ([1]; 15 mg/kg intraperitoneal, samples m.p. 2.x = 2nd time point (0.16 h), 15 mg/kg): 8.58 µg/mL | Calc. Conc. (plasma concentration) ([1]; 15 mg/kg intraperitoneal, samples m.p. 3.x = 3rd time point (0.25 h), 15 mg/kg): 9.53 µg/mL and 5.59 µg/mL and 14.3 µg/mL | Calc. Conc. (plasma concentration) ([1]; 15 mg/kg intraperitoneal, samples m.p. 4.x = 4th time point (0.33 h), 15 mg/kg): 5.6 µg/mL and 12.3 µg/mL and 4.44 µg/mL | Calc. Conc. (plasma concentration) ([1]; 15 mg/kg intraperitoneal, samples m.p. 5.x = 5th time point (0.5 h), 15 mg/kg): 4.07 µg/mL and 3.52 µg/mL and 7.05 µg/mL | Calc. Conc. (plasma concentration) ([1]; 15 mg/kg intraperitoneal, samples m.p. 6.x = 6th time point (0.75 h), 15 mg/kg): 0.0261 µg/mL and 3.72 µg/mL and 2.99 µg/mL | Calc. Conc. (plasma concentration) ([1]; 15 mg/kg intraperitoneal, samples m.p. 7.x = 7th time point (1.0 h), 15 mg/kg): 0.534 µg/mL and 2.28 µg/mL and 1.61 µg/mL | Calc. Conc. (plasma concentration) ([1]; 15 mg/kg intraperitoneal, samples m.p. 8.x = 8th time point (2.0 h), 15 mg/kg): 0.145 µg/mL and 0.0926 µg/mL | Calc. Conc. (plasma concentration) ([1]; 15 mg/kg intraperitoneal, samples m.p. 9.x = 9th time point (3.0 h), 15 mg/kg): <0 ug/mL (2×) and 0.0178 ug/mL | Calc. Conc. (plasma concentration) ([1]; 50 mg/kg intraperitoneal, samples m.p. 1.x = 1st time point (0.08 h), 50 mg/kg): 39.4 µg/mL and 26.6 µg/mL | Calc. Conc. (plasma concentration) ([1]; 50 mg/kg intraperitoneal, samples m.p. 2.x = 2nd time point (0.16 h), 5x dil., 50 mg/kg): 64.7 µg/mL and 57.7 µg/mL and 58.9 µg/mL | Calc. Conc. (plasma concentration) ([1]; 50 mg/kg intraperitoneal, samples m.p. 3.x = 3rd time point (0.25 h), 5x dil., 50 mg/kg): 56.8 µg/mL and 61.7 µg/mL and 64.2 µg/mL | Calc. Conc. (plasma concentration) ([1]; 50 mg/kg intraperitoneal, samples m.p. 4.x = 4th time point (0.33 h), 50 mg/kg): 42.1 µg/mL and 43.6 µg/mL and 135 µg/mL | Calc. Conc. (plasma concentration) ([1]; 50 mg/kg intraperitoneal, samples m.p. 5.x = 5th time point (0.5 h), 50 mg/kg): 34.7 µg/mL and 27.0 µg/mL and 4.06 µg/mL | Calc. Conc. (plasma concentration) ([1]; 50 mg/kg intraperitoneal, samples m.p. 6.x = 6th time point (0.75 h), 50 mg/kg): 11.4 µg/mL and 15.0 µg/mL | Calc. Conc. (plasma concentration) ([1]; 50 mg/kg intraperitoneal, samples m.p. 7.x = 7th time point (1.0 h), 50 mg/kg): 9.26 µg/mL and 2.33 µg/mL and 1.40 µg/mL | Calc. Conc. (plasma concentration) ([1]; 50 mg/kg intraperitoneal, samples m.p. 8.x = 8th time point (2.0 h), 50 mg/kg): 0.555 µg/mL and 1.30 µg/mL and 0.582 µg/mL | Calc. Conc. (plasma concentration) ([1]; 50 mg/kg intraperitoneal, samples m.p. 9.x = 9th time point (3.0 h), 50 mg/kg): 0.120 µg/mL and 0.105 µg/mL | Calc. Conc. (plasma concentration) ([1]; 50 mg/kg intraperitoneal, samples m.p. 10.x = 10th time point (4.0 h), 50 mg/kg): 0.0471 µg/mL and 0.143 µg/mL and 0.199 µg/mL | Pharmacokinetic properties ([2]; across all species (mice, rats, dogs, monkeys), single dose): linear and favorable pharmacokinetic properties | Dose dependence of clearance and volume of distribution ([2]; across preclinical species, single dose): independent of dose | PK drug interactions between Compound I and Biapenem ([2]; coadministration of Biapenem): No PK drug interactions | Time-kill: effect of the addition of Compound I to Biapenem [3]: significant bactericidal synergism
